Assay results from patent US11680047B2, “Enhanced erythropoiesis and iron metabolism” (FibroGen, Inc., priority 2003, dated 2023).
Marks after values point to notes of the source that are not given here.

Legend:
[1] = Total serum iron levels in rats treated twice weekly for 93 days; format: in vivo, rat
Description: Compounds were generally administered orally by gavage or IV administration. Animals treated by oral gavage received a 4-10 ml/kg volume of either 0.5% carboxymethyl cellulose (CMC; Sigma-Aldrich, St. Louis Mo.) with or without 0.1% Polysorbate 80 (0 mg/kg/day) or varying doses of a compound of the present invention (e.g., a HIF prolyl hydroxylase inhibitor) in 0.5% CMC, with or without 0.1% Polysorbate 80, using various dosing regimens. Blood samples were collected at appropriate intervals during treatment from, e.g., tail vein (rats), or abdominal vein or cardiocentesis (mice or rats). Generally, animals were anesthetized with isoflurane and blood samples were collected into MICROTAINER serum separator tubes (Becton-Dickinson, Franklin Lakes N.J.). For measurement of serum components, the tubes were incubated at room temperature for 30 minutes, and then centrifuged at 8,000 rpm at 4° C. for 10 minutes. The serum fraction was then processed and analyzed for the presence of specific components, e.g., serum iron (assay performed by Quality Clinical Labs, Mountain View, Calif.). For determination of hematocrit, blood samples were collected into MICROTAINER EDTA-2K tubes (Becton-Dickinson); EDTA-blood was then drawn into 75 mm×1.1-1.2 mm I.D. capillary tubes (Chase Scientific Glass, Inc., Rockwood Tenn.) to approximately % length, one end of the tube was sealed with CRITOSEAL sealant (Sherwood Medical Company), and the tubes were centrifuged in a J-503M MICROHEMATOCRIT centrifuge (Jorgensen Laboratories, Inc., Loveland Colo.) at 12,000 rpm for 5 minutes. Hematocrit was read against a reader card. When indicated, complete blood count (CBC) analysis, including blood hemoglobin level, reticulocyte number, and hematocrit, was performed by Quality Clinical Labs (Mountain View, Calif.).
Male and female rats were treated twice weekly (Monday and Thursday) with various concentrations (0, 20, 60, or 150 mg/kg) of compound A for 93 days. Total serum iron levels were determined.

[2] = system: Ceruloplasmin (CP); assay: Microarray gene expression in Hep3B cells: ceruloplasmin; format: cell-based, human; conditions: 2 μM
Description: Hep3B cells (ATCC No. HB-8064) were grown in DMEM containing 8% fetal bovine serum. Hep3B cells were seeded into 6-well culture dishes at ˜500,000 cells per well. After 8 hours, the media was changed to DMEM containing 0.5% fetal bovine serum and the cells were incubated for an additional 16 hours. Compound B or compound D was added to the cells (2 μM final concentration) and the cells were incubated for various times. Control cells (no compound treatment, addition of DMSO alone) were harvested at 0, 6 and 48 hours. Harvested cells were assessed for cell viability (GUAVA), or added to RNA extraction buffer (RNeasy, Qiagen) and stored at −20° C. for subsequent RNA purification. Replicate microarrays were generated using RNA isolated from replicate experiments conducted on different days. Total RNA was isolated from cells using the RNeasy kit (Qiagen).
RNA was precipitated in 0.3 M sodium acetate (pH 5.2), 50 ng/ml glycogen, and 2.5 volumes of ethanol for one hour at −20° C. Samples were centrifuged and pellets were washed with cold 80% ethanol, dried, and resuspend in water. Double stranded cDNA was synthesized using a T7-(dT)24 first strand primer (Affymetrix, Inc., Santa Clara Calif.) and the SUPERSCRIPT CHOICE system (Invitrogen) according to the manufacturer's instructions. The final cDNA was extracted with an equal volume of 25:24:1 phenol:chloroform:isoamyl alcohol using a PHASE LOCK GEL insert (Brinkman, Inc., Westbury N.Y.). The aqueous phase was collected and cDNA was precipitated using 0.5 volumes of 7.5 M ammonium acetate and 2.5 volumes of ethanol. Alternatively, cDNA was purified using the GENECHIP sample cleanup module (Affymetrix) according to the manufacturer's instructions.
Biotin-labeled cRNA was synthesized from the cDNA in an in vitro […] (IVT) reaction using a BIOARRAY HighYield RNA transcript labeling kit (Enzo Diagnostics, Inc., Farmingdale N.Y.) according to the manufacturer's instructions. Final labeled product was purified and fragmented using the GENECHIP sample cleanup module (Affymetrix) according to the manufacturer's instructions.
Hybridization cocktail was prepared by bringing […] probe to […] in 1× hybridization buffer (100 mM MES, 1 M [Na^+], 20 mM EDTA, 0.01% Tween 20), 100 µg/ml herring sperm DNA, 500 µg/ml acetylated BSA, 0.03 nM contol oligo B2 (Affymetrix), and 1×GENECHIP eukaryotic hybridization control (Affymetrix). The cocktail was sequentially incubated at 99° C. for 5 minutes and 45° C. for 5 minutes, and then centrifuged for 5 minutes. The Human Genome U133A array (Affymetrix) was brought to room temperature and then prehybridized with 1× hybridization buffer at 45° C. for 10 minutes with rotation. The buffer was then replaced with […] hybridization cocktail and the array was hybridized for 16 hours at 45° C. at 60 rpm with counter balance. Following hybridization, arrays were washed once with 6×SSPE, 0.1% Tween 20, and then washed and stained using R-phycoerythrin-conjugated streptavidin (Molecular Probes, Eugene Oreg.), goat anti-streptavidin antibody (Vector Laboratories, Burlingame Calif.), and a GENECHIP Fluidics Station 400 instrument (Affymetrix) according to the manufacturer's micro_1v1 protocol (Affymetrix). Arrays were analyzed using a GENEARRAY scanner (Affymetrix) and Microarray Suite software (Affymetrix).
The Human Genome U133A array (Affymetrix) represents all sequences in the Human Unigene database build 133 (National Center for Biotechnology Information, Bethesda Md.), including approximately 14,500 well-characterized human genes.
RNA quality was monitored by capillary electrophoresis (Agilent Bioanalyzer). Hybridization cocktails were prepared as described (Affymetrix), and hybridized to Affymetrix human U133A arrays containing 22,283 probe sets. Array performance was analyzed with Affymetrix MicroArray Suite (MAS) software and individual probe sets were assigned “present”, “marginal, and “absent” calls according to software defaults. […]

| SMILES | Serum Iron Female Rats (Mean +/− SD) ([1]; 20 mg/kg twice weekly) | Serum Iron Female Rats (Mean +/− SD) ([1]; 60 mg/kg twice weekly) | Serum Iron Female Rats (Mean +/− SD) ([1]; 150 mg/kg twice weekly) | Serum Iron Male Rats (Mean +/− SD) ([1]; 20 mg/kg twice weekly) | Serum Iron Male Rats (Mean +/− SD) ([1]; 60 mg/kg twice weekly) | Serum Iron Male Rats (Mean +/− SD) ([1]; 150 mg/kg twice weekly) | Ceruloplasmin (CP) fold-increase in mRNA levels above control, first data point ([2]; 1 hr) | Ceruloplasmin (CP) fold-increase in mRNA levels above control, second data point ([2]; 1 hr) | Ceruloplasmin (CP) fold-increase in mRNA levels above control, first data point ([2]; 3 hr) | Ceruloplasmin (CP) fold-increase in mRNA levels above control, second data point ([2]; 3 hr) | Ceruloplasmin (CP) fold-increase in mRNA levels above control, first data point ([2]; 6 hr) | Ceruloplasmin (CP) fold-increase in mRNA levels above control, second data point ([2]; 6 hr) | Ceruloplasmin (CP) fold-increase in mRNA levels above control, first data point ([2]; 12 hr) | Ceruloplasmin (CP) fold-increase in mRNA levels above control, second data point ([2]; 12 hr) | Ceruloplasmin (CP) fold-increase in mRNA levels above control, first data point ([2]; 24 hr) | Ceruloplasmin (CP) fold-increase in mRNA levels above control, second data point ([2]; 24 hr) | Ceruloplasmin (CP) fold-increase in mRNA levels above control, first data point ([2]; 48 hr) | Ceruloplasmin (CP) fold-increase in mRNA levels above control, second data point ([2]; 48 hr) |
| --- | --- | --- | --- | --- | --- | --- | --- | --- | --- | --- | --- | --- | --- | --- | --- | --- | --- | --- |
| O=C(O)CNC(=O)c1nc(Cl)c2ccccc2c1O [Compound A, [(1-Chloro-4-hydroxy-isoquinoline-3-carbonyl)-amino]-acetic acid] | 505 +/− 41 * µg/dL | 445 +/− 46 * µg/dL | 399 ± 117 µg/dL | 198 ± 64 µg/dL | 357 +/− 111 * µg/dL | 307 +/− 142 * µg/dL |  |  |  |  |  |  |  |  |  |  |  |  |
| O=C(O)CNC(=O)c1ncc2cc(Oc3ccccc3)ccc2c1O [Compound B, [(4-Hydroxy-7-phenoxy-isoquinoline-3-carbonyl)-amino]-acetic acid] |  |  |  |  |  |  | 1.142 fold | 0.946 fold | 1.123 fold | 0.955 fold | 1.555 fold | 1.103 fold | 2.366 fold | 2.507 fold | 5.136 fold | 4.909 fold | 5.82 fold | 4.678 fold |
